Assay results: US12404279B2, “Deubiquitinase inhibitors and methods of use thereof” (Molecure S.A., priority 2021, dated 2025)
Counter-ions that a name gives are not always drawn. Like-named read-outs stand apart in the source and are kept apart here.

Molecular target: full-length USP7 (Homo sapiens (Human), UniProt Q93009)
Assay: Enzymatic assay to determine IC50 of USP7 inhibitors (Ubiquitin-Rhodamine 110 cleavage)
Type: biochemical
Conditions: for inhibition at 1 µM: read-out: percent value of inhibition of USP7 activity; for IC50: 0.5 nM USP7, 0.5 μM Ubiquitin-Rhodamine 110, 45 min at 37° C.
Summary of the method: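 Full-length USP7 (0.5 nM) in 50 mM HEPES pH 7.5, 150 mM NaCl, 1 mM DTT, 1 mg/ml BSA, 0.05% Tween20 was preincubated 15 min with DTT at room temperature before compound addition.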

[1] = at 1 μM of the test compound, given where IC50 not determined yet

Sequence of full-length USP7 (Q93009 whole entry): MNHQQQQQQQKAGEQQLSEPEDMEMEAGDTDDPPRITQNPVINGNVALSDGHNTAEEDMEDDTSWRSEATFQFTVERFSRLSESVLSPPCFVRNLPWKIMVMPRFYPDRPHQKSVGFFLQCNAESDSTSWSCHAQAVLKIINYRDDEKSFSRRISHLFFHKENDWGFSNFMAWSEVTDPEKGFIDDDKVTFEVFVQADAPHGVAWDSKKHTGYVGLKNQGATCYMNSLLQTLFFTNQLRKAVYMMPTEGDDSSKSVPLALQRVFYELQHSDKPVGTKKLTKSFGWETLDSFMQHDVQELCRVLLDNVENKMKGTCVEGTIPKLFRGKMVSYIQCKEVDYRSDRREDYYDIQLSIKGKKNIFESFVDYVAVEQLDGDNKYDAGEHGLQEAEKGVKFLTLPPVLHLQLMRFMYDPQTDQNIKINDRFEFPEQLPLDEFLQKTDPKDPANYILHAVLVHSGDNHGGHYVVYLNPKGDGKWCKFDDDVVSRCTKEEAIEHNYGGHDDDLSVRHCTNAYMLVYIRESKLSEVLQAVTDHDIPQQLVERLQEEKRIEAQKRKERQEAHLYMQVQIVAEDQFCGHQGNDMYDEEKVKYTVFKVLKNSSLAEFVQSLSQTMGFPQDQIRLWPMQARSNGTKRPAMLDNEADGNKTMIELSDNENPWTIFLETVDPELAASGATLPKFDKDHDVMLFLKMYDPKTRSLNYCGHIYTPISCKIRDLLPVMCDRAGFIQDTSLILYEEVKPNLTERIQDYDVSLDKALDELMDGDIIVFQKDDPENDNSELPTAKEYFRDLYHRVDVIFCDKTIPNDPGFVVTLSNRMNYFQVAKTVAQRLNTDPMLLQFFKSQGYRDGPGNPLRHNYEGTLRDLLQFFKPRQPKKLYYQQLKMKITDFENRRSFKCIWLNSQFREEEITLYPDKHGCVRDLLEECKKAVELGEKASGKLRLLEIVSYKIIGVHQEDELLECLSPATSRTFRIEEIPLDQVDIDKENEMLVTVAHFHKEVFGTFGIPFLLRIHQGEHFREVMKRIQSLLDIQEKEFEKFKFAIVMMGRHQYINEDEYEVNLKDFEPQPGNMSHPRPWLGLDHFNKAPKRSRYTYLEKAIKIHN

| SMILES | IC50 [nM] | other results |
| --- | --- | --- |
| CC1(C)C2C(=O)N(Cc3cc4nccc(-c5ncc[nH]5)c4s3)C(=O)C21 (centres unmarked) [Example 146, 3-((7-(1H-imidazol-2-yl)thieno[3,2-b]pyridin-2-yl)methyl)-6,6-dimethyl-3-azabicyclo[3.1.0]hexane-2,4-dione 2,2,2-trifluoroacetate] |  | inhibition at 1 µM: < 20% |
| Cc1nc(C(F)(F)F)cc(-c2ccnc3cc(CN4C(=O)C5C(C4=O)C5(C)C)sc23)c1NC(=O)c1cccnc1 (centres unmarked) [Example 63, N-(4-(2-((6,6-dimethyl-2,4-dioxo-3-azabicyclo[3.1.0]hexan-3-yl)methyl)thieno[3,2-b]pyridin-7-yl)-2-methyl-6-(trifluoromethyl)pyridin-3-yl)nicotinamide 2,2,2-trifluoroacetate] | > 10000 |  |
| Cc1cc(C(F)(F)F)nc(-c2ccnc3cc(CN4C(=O)C5C(C4=O)C5(C)C)sc23)c1C[C@H]1CN(C)CCO1 (stereo partly drawn) [Example 97, 6,6-dimethyl-3-((7-(4-methyl-3-(((S)-4-methylmorpholin-2-yl)methyl)-6-(trifluoromethyl)pyridin-2-yl)thieno[3,2-b]pyridin-2-yl)methyl)-3-azabicyclo[3.1.0]hexane-2,4-dione dihydrochloride] | 1000 to 10000 |  |
| CCc1nc(C(F)(F)F)cc(-c2ccnc3cc(CN4C(=O)C5C(C4=O)C5(C)C)sc23)c1NC(=O)C1CCNCC1 (centres unmarked) [Example 33, N-(4-(2-((6,6-dimethyl-2,4-dioxo-3-azabicyclo[3.1.0]hexan-3-yl)methyl)thieno[3,2-b]pyridin-7-yl)-2-ethyl-6-(trifluoromethyl)pyridin-3-yl)piperidine-4-carboxamide 2,2,2-trifluoroacetate] |  | inhibition at 1 µM: < 20% |
| Cc1nc(C(F)(F)F)cc(-c2ccnc3cc(CN4C(=O)C5C(C4=O)C5(C)C)sc23)c1CN1CCNCC1 (centres unmarked) [Example 102, 6,6-dimethyl-3-((7-(2-methyl-3-(piperazin-1-ylmethyl)-6-(trifluoromethyl)pyridin-4-yl)thieno[3,2-b]pyridin-2-yl)methyl)-3-azabicyclo[3.1.0]hexane-2,4-dione 2,2,2-trifluoroacetate] | 1000 to 10000 |  |
| COCC(=O)Nc1c(-c2ccnc3cc(CN4C(=O)C5C(C4=O)C5(C)C)sc23)cc(C(F)(F)F)nc1C (centres unmarked) [Example 61, N-(4-(2-((6,6-dimethyl-2,4-dioxo-3-azabicyclo[3.1.0]hexan-3-yl)methyl)thieno[3,2-b]pyridin-7-yl)-2-methyl-6-(trifluoromethyl)pyridin-3-yl)-2-methoxyacetamide 2,2,2-trifluoroacetate] | > 10000 |  |
| Cc1cc(C(F)(F)F)nc(-c2ccnc3cc(CN4C(=O)C5C(C4=O)C5(C)C)sc23)c1C(=O)N1C[C@@H](N)[C@@H](F)C1 (stereo partly drawn) [Example 169, 3-((7-(3-((3R,4S)-3-amino-4-fluoropyrrolidine-1-carbonyl)-4-methyl-6-(trifluoromethyl)pyridin-2-yl)thieno[3,2-b]pyridin-2-yl)methyl)-6,6-dimethyl-3-azabicyclo[3.1.0]hexane-2,4-dione hydrochloride] | < 500 |  |
| Cc1nc(C(F)(F)F)cc(-c2ccnc3cc(CN4C(=O)C5C(C4=O)C5(C)C)sc23)c1CN1CC(F)(F)C1 (centres unmarked) [Example 103, 3-((7-(3-((3,3-difluoroazetidin-1-yl)methyl)-2-methyl-6-(trifluoromethyl)pyridin-4-yl)thieno[3,2-b]pyridin-2-yl)methyl)-6,6-dimethyl-3-azabicyclo[3.1.0]hexane-2,4-dione 2,2,2-trifluoroacetate] | 1000 to 10000 |  |
| Cc1c(N)cc(-c2ccnc3cc(CN4C(=O)C5C(C4=O)C5(C)C)sc23)n1C[C@@H]1CNCCO1 (stereo partly drawn) [Example 176, 3-((7-(4-amino-5-methyl-1-(((S)-morpholin-2-yl)methyl)-1H-pyrrol-2-yl)thieno[3,2-b]pyridin-2-yl))methyl)-6,6-dimethyl-3-azabicyclo[3.1.0]hexane-2,4-dione hydrochloride] |  | inhibition at 1 µM [1]: < 20% |
| Cc1nc(Cl)cc(-c2ccnc3cc(CN4C(=O)C5C(C4=O)C5(C)C)sc23)c1NC(=O)C1CNC1 (centres unmarked) [Example 29, N-(6-chloro-4-(2-((6,6-dimethyl-2,4-dioxo-3-azabicyclo[3.1.0]hexan-3-yl)methyl)thieno[3,2-b]pyridin-7-yl)-2-methylpyridin-3-yl)azetidine-3-carboxamide 2,2,2-trifluoroacetate] | < 500 |  |
| Cc1cc(C(F)(F)F)nc(-c2ccnc3cc(CN4C(=O)C5C(C4=O)C5(C)C)sc23)c1CN1CCOCC1=O (centres unmarked) [Example 38, 6,6-dimethyl-3-((7-(4-methyl-3-((3-oxomorpholino)methyl)-6-(trifluoromethyl)pyridin-2-yl)thieno[3,2-b]pyridin-2-yl)methyl)-3-azabicyclo[3.1.0]hexane-2,4-dione hydrochloride] |  | inhibition at 1 µM [1]: < 20% |
| Cc1cc(C(F)(F)F)nc(-c2ccnc3cc(CN4C(=O)C5C(C4=O)C5(C)C)sc23)c1C(=O)N1C[C@H](N)[C@@H](F)C1 (stereo partly drawn) [Example 170, 3-((7-(3-((3S,4S)-3-amino-4-fluoropyrrolidine-1-carbonyl)-4-methyl-6-(trifluoromethyl)pyridin-2-yl)thieno[3,2-b]pyridin-2-yl)methyl)-6,6-dimethyl-3-azabicyclo[3.1.0]hexane-2,4-dione hydrochloride] | < 500 |  |
| Cc1nc(C#N)cc(-c2ccnc3cc(CN4C(=O)C5C(C4=O)C5(C)C)sc23)c1C(=O)NC1CC(F)(F)C1 (centres unmarked) [Example 14, 6-cyano-N-(3,3-difluorocyclobutyl)-4-(2-((6,6-dimethyl-2,4-dioxo-3-azabicyclo[3.1.0]hexan-3-yl)methyl)thieno[3,2-b]pyridin-7-yl)-2-methylnicotinamide 2,2,2-trifluoroacetate] |  | inhibition at 1 µM: < 20% |
| Cc1cc(C(F)(F)F)nc(-c2ccnc3cc(CN4C(=O)C5C(C4=O)C5(C)C)sc23)c1C(=O)N1CCC2CNCC21 (racemic) [Example 72, 6,6-dimethyl-3-((7-(4-methyl-3-(octahydropyrrolo[3,4-b]pyrrole-1-carbonyl)-6-(trifluoromethyl)pyridin-2-yl)thieno[3,2-b]pyridin-2-yl)methyl)-3-azabicyclo[3.1.0]hexane-2,4-dione dihydrochloride] | < 500 |  |
| Cc1nc(C#N)cc(-c2ccnc3cc(CN4C(=O)C5C(C4=O)C5(C)C)sc23)c1C(=O)N1CCNC[C@@H]1C (stereo partly drawn) [Example 5, 4-(2-((6,6-dimethyl-2,4-dioxo-3-azabicyclo[3.1.0]hexan-3-yl)methyl)thieno[3,2-b]pyridin-7-yl)-6-methyl-5-((S)-2-methylpiperazine-1-carbonyl)picolinonitrile 2,2,2-trifluoroacetate] | < 500 |  |
| Cc1cc(Cl)cc(-c2ccnc3ccoc23)c1O[C@H]1CCCNC1 [Example 150, (S)-7-(5-chloro-3-methyl-2-(piperidin-3-yloxy)phenyl)furo[3,2-b]pyridine 2,2,2-trifluoroacetate] | 1000 to 10000 |  |
| Cc1cc(C(F)(F)F)nc(-c2ccnc3cc(CN4C(=O)C5C(C4=O)C5(C)C)sc23)c1NC1CC2(CNC2)C1 (centres unmarked) [Example 132, 3-((7-(3-((2-azaspiro[3.3]heptan-6-yl)amino)-4-methyl-6-(trifluoromethyl)pyridin-2-yl)thieno[3,2-b]pyridin-2-yl)methyl)-6,6-dimethyl-3-azabicyclo[3.1.0]hexane-2,4-dione 2,2,2-trifluoroacetate] | < 500 |  |
